Test results: ChEMBL document CHEMBL5584341, “Discovery of Potent, Specific, and Orally Available NLRP3 Inflammasome Inhibitors Based on Pyridazine Scaffolds for the Treatment of Septic Shock and Peritonitis” (J Med Chem, 2024)

Key:
[1] = Inhibition of IL-1beta release in PMA-differentiated/ LPS and nigericin stimulated human THP-1 cells at 0.5 uM pretreated with LPS for 3 hrs followed by incubation with compound for 40 mins and later stimulated with nigericin for 40 mins by ELISA; assay type: functional; settings: THP-1, 1.333 h, time 80 min
[2] = Inhibition of IL-1beta release in PMA-differentiated/ LPS and nigericin stimulated human THP-1 cells at 0.1 uM pretreated with LPS for 3 hrs followed by incubation with compound for 40 mins and later stimulated with nigericin for 40 mins by ELISA; assay type: functional; settings: THP-1, 1.333 h, time 80 min
[3] = Inhibition of IL-1beta release in PMA-differentiated/ LPS and nigericin stimulated human THP-1 cells pretreated with LPS for 3 hrs followed by incubation with compound for 40 mins and later stimulated with nigericin for 40 mins by ELISA; assay type: functional, cell-based
hERG (KCNH2) = hERG (KCNH2) (Homo sapiens, UniProt Q12809); assay: Inhibition of human ERG at 20 uM relative to control
[4] = Metabolic stability in human liver microsomes assessed as half life at 10 uM […] in presence of NADPH by LC-MS/MS analysis; assay type: ADME, Microsome
[5] = Metabolic stability in human liver microsomes assessed as intrinsic clearance per g protein at 10 uM […] in presence of NADPH by LC-MS/MS analysis; assay type: ADME, Microsome

hERG (KCNH2), sequence (Q12809 whole entry): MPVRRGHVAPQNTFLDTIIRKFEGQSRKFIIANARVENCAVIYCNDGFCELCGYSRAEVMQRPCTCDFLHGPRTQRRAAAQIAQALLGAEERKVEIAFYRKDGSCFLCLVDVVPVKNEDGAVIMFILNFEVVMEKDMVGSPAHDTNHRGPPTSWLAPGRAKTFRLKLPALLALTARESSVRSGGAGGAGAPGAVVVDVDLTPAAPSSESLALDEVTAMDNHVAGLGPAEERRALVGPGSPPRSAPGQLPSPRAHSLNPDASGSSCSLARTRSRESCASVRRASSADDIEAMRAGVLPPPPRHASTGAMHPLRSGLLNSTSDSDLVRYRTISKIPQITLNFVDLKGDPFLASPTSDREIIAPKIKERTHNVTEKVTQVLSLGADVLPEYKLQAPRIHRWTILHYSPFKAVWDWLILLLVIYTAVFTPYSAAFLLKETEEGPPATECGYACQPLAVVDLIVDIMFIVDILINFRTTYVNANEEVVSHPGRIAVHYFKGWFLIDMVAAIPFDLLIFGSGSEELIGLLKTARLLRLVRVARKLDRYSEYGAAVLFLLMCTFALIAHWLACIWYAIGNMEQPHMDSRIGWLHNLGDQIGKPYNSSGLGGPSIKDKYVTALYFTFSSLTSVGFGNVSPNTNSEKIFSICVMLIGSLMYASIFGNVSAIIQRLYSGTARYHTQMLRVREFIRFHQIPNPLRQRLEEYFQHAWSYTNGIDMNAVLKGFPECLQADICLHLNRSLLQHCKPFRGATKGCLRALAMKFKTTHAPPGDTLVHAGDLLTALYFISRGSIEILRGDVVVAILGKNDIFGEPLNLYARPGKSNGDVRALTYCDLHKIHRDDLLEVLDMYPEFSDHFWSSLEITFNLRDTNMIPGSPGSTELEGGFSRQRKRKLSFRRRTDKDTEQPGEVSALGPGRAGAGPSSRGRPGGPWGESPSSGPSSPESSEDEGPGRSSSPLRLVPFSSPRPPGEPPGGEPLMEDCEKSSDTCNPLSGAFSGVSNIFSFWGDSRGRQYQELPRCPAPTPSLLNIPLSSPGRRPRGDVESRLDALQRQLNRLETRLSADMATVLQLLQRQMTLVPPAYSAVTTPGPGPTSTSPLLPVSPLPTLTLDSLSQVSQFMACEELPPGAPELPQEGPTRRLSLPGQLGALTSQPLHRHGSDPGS

Compound | inhibition at 0.5 µM [1] [%] | inhibition at 0.1 µM [2] [%] | IC50 [3] [nM] | inhibition at 20 µM (hERG (KCNH2)) [%] | half-life at 10 µM [4] [min] | intrinsic clearance [5] [mL/min]
Oc1c(-c2nnc(N[C@@H]3CCOC3)c3c2C2CCC3CC2)ccc2occc12 | 30 | 25 | – | – | – | –
Cc1ccc(-c2nnc(N[C@@H]3CCCN(C4CC(F)(F)C4)C3)c3c2C2CCC3CC2)c(O)c1 | 96.6 | 60.2 | 53 | 63.8 | – | –
CC(C)(F)CN1CCC[C@@H](Nc2nnc(-c3ccc(C(F)(F)F)cc3O)c3c2C2CCC3CC2)C1 | 95.8 | 55.4 | – | – | – | –
N#CCN1CCC[C@@H](Nc2nnc(-c3ccc(C(F)(F)F)cc3O)c3c2C2CCC3C2)C1 (stereo not given in full) | 77 | 7.6 | – | – | – | –
Oc1c(-c2nnc(N[C@@H]3CCC[C@H](O)C3)c3c2C2CCC3CC2)ccc2occc12 | 98.2 | 97.2 | 4 | 59 | 69.3 | 20
Oc1cc(C(F)(F)F)ccc1-c1nnc(N[C@@H]2CCCN(C3CC(F)(F)C3)C2)c2c1C1CCC2C1 (stereo not given in full) | 96.3 | 72.8 | 76 | – | – | –
Oc1c(-c2nnc(N[C@@H]3CCCN(C4CC(F)(F)C4)C3)c3c2C2CCC3CC2)ccc2sccc12 | 96.9 | 61.9 | 57 | 69.4 | – | –
Oc1cc(C(F)(F)F)ccc1-c1nnc(N[C@@H]2CCCC[C@H]2O)c2ccccc12 | 97.8 | 98.3 | 9 | 86 | – | –
CC(CO)N1CCC[C@@H](Nc2nnc(-c3ccc4occc4c3O)c3c2C2CCC3CC2)C1 (stereo not given in full) | 99 | 98.8 | 4 | 71 | > 120 | < 12
CC(F)(F)CN1CCC[C@@H](Nc2nnc(-c3ccc(C(F)(F)F)cc3O)c3c2C2CCC3CC2)C1 | 49.9 | 29 | – | – | – | –
OC[C@@H](O)CNc1nnc(-c2ccc(C(F)(F)F)cc2O)c2c1C1CCC2CC1 | 74.5 | 20.3 | – | – | – | –
Oc1cc(C(F)(F)F)ccc1-c1nnc(N[C@@H]2CCCC[C@H]2O)c2c1C1CCC2CC1 | 85.8 | 35.9 | 124 | -1.93 | – | –
CN1CCC[C@H](Nc2nnc(-c3ccc(C(F)(F)F)cc3O)c3c2C2CCC3C2)C1 (stereo not given in full) | 3.09 | 5.31 | – | – | – | –
CN1C[C@H](Nc2nnc(-c3ccc4occc4c3O)c3c2C2CCC3CC2)CC(F)(F)C1 | 97.7 | 55.5 | – | – | – | –
Oc1cc(C(F)(F)F)ccc1-c1nnc(N[C@@H]2CCCN(C3COC3)C2)c2c1C1CCC2CC1 | 96.5 | 52.9 | – | – | – | –
N#Cc1ccc(-c2nnc(N[C@@H]3CCCN(C4CC(F)(F)C4)C3)c3c2C2CCC3CC2)c(O)c1 | 91.5 | 51.7 | – | – | – | –
Oc1c(-c2nnc(N[C@@H]3CCCN(C4CC(F)(F)C4)C3)c3c2C2CCC3CC2)ccc2occc12 | 98.6 | 98.5 | 2 | -1.03 | 44.7 | 31
Oc1c(-c2nnc(N[C@@H]3CCCC[C@H]3O)c3c2C2CCC3CC2)ccc2occc12 | 96.3 | 94.9 | 6 | 60 | > 120 | < 12
CCN1CCC[C@@H](Nc2nnc(-c3ccc(C(F)(F)F)cc3O)c3c2C2CCC3C2)C1 (stereo not given in full) | 96.3 | 92.5 | 27 | – | – | –
[2H]C([2H])([2H])C([2H])([2H])N1CCC[C@@H](Nc2nnc(-c3ccc4occc4c3O)c3c2C2CCC3CC2)C1 | 98.5 | 98.6 | 1 | 85.8 | > 120 | < 12

Compound | inhibition at 0.5 µM [1] [%] | inhibition at 0.1 µM [2] [%] | IC50 [3] [nM] | inhibition at 20 µM (hERG (KCNH2)) [%] | half-life at 10 µM [4] [min] | intrinsic clearance [5] [mL/min]
CCN1CCC[C@@H](Nc2nnc(-c3ccc4occc4c3O)c3c2C2CCC3CC2)C1 | 98.3 | 98.6 | 1 | 85.3 | > 120 | < 12
OCCN1CCC[C@@H](Nc2nnc(-c3ccc(C(F)(F)F)cc3O)c3c2C2CCC3CC2)C1 | 99.2 | 98.6 | 42 | – | – | –
Oc1cc(C(F)(F)F)ccc1-c1nnc(N[C@@H]2CCCN(CC3CC3)C2)c2c1C1CCC2C1 (stereo not given in full) | 97.2 | 83.9 | 87 | – | – | –
CN1CCO[C@H](CNc2nnc(-c3ccc4occc4c3O)c3c2C2CCC3CC2)C1 | 36.5 | 9.42 | – | – | – | –
Oc1cc(C(F)(F)F)ccc1-c1nnc(N[C@@H]2CCCN(C3CC(F)(F)C3)C2)c2c1C1CCC2CC1 | 97.4 | 96.3 | 25 | 15.5 | – | –
Oc1cc(C(F)(F)F)ccc1-c1nnc(N[C@@H]2CCC[C@H](O)C2)c2c1C1CCC2CC1 | 90.8 | 45 | – | – | – | –
CN1CCC[C@@H](Nc2nnc(-c3ccc(C(F)(F)F)cc3O)c3c2C2CCC3C2)C1 (stereo not given in full) | 96.9 | 95 | 38 | – | – | –
Oc1cc(C(F)(F)F)ccc1-c1nnc(N[C@@H]2CCCN(CC(F)F)C2)c2c1C1CCC2CC1 | 73.8 | 19.7 | – | – | – | –
CN1C[C@H](F)C[C@@H](Nc2nnc(-c3ccc4occc4c3O)c3c2C2CCC3CC2)C1 | 98.6 | 98.6 | 5 | 78.5 | > 120 | < 12
Oc1cc(Cl)ccc1-c1nnc(N[C@@H]2CCCN(C3CC(F)(F)C3)C2)c2c1C1CCC2CC1 | 95.3 | 88 | 26 | 23.9 | – | –
Oc1cc(C(F)(F)F)ccc1-c1nnc(N[C@@H]2CCCN(C3CCOC3)C2)c2c1C1CCC2CC1 (stereo not given in full) | 96.8 | 95.2 | 49 | – | – | –
Cc1c(N[C@@H]2CCCC[C@H]2O)nnc(-c2ccc(C(F)(F)F)cc2O)c1C | 98.3 | 97.8 | 12 | – | – | –
CN1CC[C@@H](Nc2nnc(-c3ccc(C(F)(F)F)cc3O)c3c2C2CCC3C2)C1 (stereo not given in full) | 32.7 | 12.1 | – | – | – | –
Oc1cc(C(F)(F)F)ccc1-c1nnc(N[C@@H]2CCCN(C3CCC3)C2)c2c1C1CCC2CC1 | 97.1 | 96.8 | 27 | – | – | –
Oc1cc(C(F)(F)F)ccc1-c1nnc(N[C@@H]2CCCC[C@H]2O)c2c1C1CCC2C1 (stereo not given in full) | 95.6 | 43.5 | 79 | 57.7 | – | –
Oc1cc(C(F)(F)F)ccc1-c1nnc(N[C@@H]2CCCC[C@H]2O)c2c1CCCC2 | 98.3 | 92.4 | 6 | 84.1 | – | –
Oc1cc(OC(F)(F)F)ccc1-c1nnc(N[C@@H]2CCCN(C3CC(F)(F)C3)C2)c2c1C1CCC2CC1 | 93.2 | 46.5 | – | – | – | –
Oc1cc(C(F)(F)F)ccc1-c1nnc(N[C@@H]2CCCN(C3CCC3)C2)c2c1C1CCC2C1 (stereo not given in full) | 97.2 | 94.6 | 49 | – | – | –
Oc1cc(C(F)(F)F)ccc1-c1nnc(N[C@@H]2CCCNC2)c2c1C1CCC2CC1 | 94.3 | 46.5 | 103 | – | – | –
CN1CCC[C@@H](Nc2nnc(-c3ccc(C(F)(F)F)cc3O)c3c2C2CCC3CC2)C1 | 97.4 | 97 | 38 | – | – | –
